Assay in all cases: KINOMEscan (ScanMAX) kinase profiling
Format in all cases: binding

Assay [1] deals with T1, panel of 468 kinases (Homo sapiens, UniProt P54756).
T1 construct: purchased KINOMEscan (ScanMAX) service
The settings on record: EPHA5; 1 μM; read-out: % control.

The target in assay [2] is T2, panel of 468 kinases (Homo sapiens, UniProt Q02763).
T2 construct: purchased KINOMEscan (ScanMAX) service
Conditions: TIE2; 1 μM; read-out: % control.

The target of assay [3] is T3, panel of 468 kinases (Homo sapiens, UniProt Q06418).
T3 construct: purchased KINOMEscan (ScanMAX) service
T3 sequence (Q06418 41-890): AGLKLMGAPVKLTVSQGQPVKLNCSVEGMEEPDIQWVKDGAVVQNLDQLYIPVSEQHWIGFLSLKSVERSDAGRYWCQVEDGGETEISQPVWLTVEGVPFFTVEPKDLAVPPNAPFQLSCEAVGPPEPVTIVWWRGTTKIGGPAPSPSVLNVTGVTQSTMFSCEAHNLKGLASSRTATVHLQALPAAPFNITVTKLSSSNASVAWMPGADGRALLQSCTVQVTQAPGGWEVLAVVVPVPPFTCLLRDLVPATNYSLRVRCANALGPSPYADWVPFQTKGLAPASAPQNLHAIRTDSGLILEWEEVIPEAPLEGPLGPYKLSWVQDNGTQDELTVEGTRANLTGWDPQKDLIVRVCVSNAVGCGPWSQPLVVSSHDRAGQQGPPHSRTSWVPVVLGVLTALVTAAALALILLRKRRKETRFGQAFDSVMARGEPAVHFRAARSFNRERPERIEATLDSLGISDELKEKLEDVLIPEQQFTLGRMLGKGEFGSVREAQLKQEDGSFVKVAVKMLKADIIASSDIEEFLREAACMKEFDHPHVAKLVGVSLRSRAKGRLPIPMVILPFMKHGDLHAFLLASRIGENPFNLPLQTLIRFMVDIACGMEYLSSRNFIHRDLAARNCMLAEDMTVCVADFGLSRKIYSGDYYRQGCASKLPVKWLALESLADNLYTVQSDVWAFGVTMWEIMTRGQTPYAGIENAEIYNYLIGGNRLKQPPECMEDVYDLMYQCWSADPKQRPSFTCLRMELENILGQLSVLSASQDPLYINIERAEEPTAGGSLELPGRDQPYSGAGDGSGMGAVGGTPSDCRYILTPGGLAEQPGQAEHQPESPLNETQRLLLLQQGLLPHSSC
The settings on record: TYRO3; 1 μM; read-out: % control.

The target of assay [4] is T4, panel of 468 kinases (Homo sapiens, UniProt Q8IU85).
T4 construct: purchased KINOMEscan (ScanMAX) service
T4 sequence (Q8IU85 whole entry): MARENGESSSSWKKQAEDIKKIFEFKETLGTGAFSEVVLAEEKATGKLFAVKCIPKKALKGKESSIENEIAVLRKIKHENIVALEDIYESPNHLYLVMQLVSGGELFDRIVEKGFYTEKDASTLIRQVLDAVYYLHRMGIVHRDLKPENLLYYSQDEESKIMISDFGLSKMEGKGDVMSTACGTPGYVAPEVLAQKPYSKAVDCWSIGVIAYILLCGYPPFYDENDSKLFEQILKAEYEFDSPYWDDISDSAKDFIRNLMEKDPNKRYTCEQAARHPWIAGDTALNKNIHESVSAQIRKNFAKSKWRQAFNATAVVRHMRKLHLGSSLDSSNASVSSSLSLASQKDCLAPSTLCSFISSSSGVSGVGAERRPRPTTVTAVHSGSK
Conditions: CAMK1D; 1 μM; read-out: % control.

The target in assay [5] is T5, panel of 468 kinases (Homo sapiens, UniProt Q96PY6).
T5 construct: purchased KINOMEscan (ScanMAX) service
T5 sequence (Q96PY6 1-1258): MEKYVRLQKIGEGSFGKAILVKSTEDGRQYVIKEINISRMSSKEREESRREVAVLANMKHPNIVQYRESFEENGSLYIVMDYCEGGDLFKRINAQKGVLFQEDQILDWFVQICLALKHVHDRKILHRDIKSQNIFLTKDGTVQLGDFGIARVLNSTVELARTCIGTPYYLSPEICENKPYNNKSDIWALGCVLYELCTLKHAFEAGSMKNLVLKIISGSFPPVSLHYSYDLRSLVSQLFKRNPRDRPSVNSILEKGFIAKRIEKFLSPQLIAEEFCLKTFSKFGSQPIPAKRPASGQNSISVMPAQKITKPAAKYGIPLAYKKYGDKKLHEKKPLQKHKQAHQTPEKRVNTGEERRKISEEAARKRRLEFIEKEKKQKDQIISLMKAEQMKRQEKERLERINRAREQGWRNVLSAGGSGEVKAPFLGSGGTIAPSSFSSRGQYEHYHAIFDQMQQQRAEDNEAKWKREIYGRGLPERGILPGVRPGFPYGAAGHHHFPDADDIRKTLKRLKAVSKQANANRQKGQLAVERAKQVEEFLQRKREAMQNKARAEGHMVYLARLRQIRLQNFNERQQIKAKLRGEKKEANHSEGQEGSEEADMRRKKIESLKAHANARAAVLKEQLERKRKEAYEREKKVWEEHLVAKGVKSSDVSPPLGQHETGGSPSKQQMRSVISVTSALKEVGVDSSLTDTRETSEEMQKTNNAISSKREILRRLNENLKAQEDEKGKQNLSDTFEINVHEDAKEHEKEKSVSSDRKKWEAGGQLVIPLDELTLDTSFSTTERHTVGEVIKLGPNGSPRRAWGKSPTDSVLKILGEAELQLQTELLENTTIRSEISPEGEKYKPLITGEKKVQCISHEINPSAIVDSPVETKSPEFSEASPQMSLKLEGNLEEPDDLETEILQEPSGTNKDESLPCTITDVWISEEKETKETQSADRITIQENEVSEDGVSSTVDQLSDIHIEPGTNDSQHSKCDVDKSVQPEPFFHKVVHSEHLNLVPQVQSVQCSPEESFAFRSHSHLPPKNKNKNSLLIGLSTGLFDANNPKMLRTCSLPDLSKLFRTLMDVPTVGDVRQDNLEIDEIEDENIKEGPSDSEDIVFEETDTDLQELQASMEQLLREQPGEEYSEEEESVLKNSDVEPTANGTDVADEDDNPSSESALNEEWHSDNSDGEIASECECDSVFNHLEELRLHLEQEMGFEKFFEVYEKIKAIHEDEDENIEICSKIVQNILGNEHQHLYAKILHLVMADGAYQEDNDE
The settings on record: NEK1; 1 μM; read-out: % control.

In assay [6] the target is T6, panel of 468 kinases (Homo sapiens, UniProt Q9UBF8).
T6 construct: purchased KINOMEscan (ScanMAX) service
T6 sequence (Q9UBF8 whole entry): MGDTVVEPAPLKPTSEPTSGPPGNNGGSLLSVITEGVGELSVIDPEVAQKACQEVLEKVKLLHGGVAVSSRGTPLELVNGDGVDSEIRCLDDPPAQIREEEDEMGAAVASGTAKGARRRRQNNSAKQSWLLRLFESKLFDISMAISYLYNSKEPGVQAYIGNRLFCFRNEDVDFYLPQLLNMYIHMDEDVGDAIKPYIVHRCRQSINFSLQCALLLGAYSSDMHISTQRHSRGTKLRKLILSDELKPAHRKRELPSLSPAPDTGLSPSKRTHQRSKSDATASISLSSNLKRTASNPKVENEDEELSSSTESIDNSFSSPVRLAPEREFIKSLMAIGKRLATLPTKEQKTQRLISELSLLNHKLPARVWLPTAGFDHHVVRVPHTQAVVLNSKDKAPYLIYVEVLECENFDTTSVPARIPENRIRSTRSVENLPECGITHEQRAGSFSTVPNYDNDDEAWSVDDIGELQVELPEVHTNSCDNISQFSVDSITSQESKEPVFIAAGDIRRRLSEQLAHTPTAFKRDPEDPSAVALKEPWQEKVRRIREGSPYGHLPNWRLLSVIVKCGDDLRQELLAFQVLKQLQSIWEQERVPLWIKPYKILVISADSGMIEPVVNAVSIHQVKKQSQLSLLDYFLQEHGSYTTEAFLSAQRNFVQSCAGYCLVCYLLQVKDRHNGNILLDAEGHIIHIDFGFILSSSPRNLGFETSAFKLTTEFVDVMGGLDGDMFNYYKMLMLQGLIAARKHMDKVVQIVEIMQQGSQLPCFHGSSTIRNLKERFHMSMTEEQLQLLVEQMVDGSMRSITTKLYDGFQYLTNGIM
Conditions: PIK4CB; 1 μM; read-out: % control.

T1 sequence (P54756 25-1037): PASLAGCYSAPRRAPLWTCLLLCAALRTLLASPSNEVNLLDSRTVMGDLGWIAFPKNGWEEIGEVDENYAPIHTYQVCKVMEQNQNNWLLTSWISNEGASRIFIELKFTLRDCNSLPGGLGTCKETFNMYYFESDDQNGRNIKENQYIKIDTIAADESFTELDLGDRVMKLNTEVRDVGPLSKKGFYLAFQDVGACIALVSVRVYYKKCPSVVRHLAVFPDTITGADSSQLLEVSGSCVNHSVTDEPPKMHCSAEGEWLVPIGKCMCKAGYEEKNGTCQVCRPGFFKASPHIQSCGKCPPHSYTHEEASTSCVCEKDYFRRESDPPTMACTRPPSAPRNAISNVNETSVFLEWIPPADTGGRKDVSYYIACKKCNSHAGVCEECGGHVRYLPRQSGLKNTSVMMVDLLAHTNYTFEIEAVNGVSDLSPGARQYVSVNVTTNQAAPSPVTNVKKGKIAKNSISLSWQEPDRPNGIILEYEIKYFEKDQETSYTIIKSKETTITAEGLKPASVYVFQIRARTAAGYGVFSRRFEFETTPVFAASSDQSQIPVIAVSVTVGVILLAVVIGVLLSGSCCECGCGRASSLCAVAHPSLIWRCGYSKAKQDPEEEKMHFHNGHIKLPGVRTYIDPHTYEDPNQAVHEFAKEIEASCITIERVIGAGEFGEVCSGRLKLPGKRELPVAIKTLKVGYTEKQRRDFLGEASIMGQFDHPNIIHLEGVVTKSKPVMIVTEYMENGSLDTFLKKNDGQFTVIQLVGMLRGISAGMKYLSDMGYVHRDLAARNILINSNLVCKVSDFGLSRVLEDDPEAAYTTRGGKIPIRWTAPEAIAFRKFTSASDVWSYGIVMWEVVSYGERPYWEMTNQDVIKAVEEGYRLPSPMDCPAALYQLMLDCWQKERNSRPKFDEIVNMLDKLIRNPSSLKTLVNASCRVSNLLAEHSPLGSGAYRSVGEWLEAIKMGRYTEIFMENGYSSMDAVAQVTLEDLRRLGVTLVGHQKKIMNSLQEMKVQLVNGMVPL
T2 sequence (Q02763 23-1124): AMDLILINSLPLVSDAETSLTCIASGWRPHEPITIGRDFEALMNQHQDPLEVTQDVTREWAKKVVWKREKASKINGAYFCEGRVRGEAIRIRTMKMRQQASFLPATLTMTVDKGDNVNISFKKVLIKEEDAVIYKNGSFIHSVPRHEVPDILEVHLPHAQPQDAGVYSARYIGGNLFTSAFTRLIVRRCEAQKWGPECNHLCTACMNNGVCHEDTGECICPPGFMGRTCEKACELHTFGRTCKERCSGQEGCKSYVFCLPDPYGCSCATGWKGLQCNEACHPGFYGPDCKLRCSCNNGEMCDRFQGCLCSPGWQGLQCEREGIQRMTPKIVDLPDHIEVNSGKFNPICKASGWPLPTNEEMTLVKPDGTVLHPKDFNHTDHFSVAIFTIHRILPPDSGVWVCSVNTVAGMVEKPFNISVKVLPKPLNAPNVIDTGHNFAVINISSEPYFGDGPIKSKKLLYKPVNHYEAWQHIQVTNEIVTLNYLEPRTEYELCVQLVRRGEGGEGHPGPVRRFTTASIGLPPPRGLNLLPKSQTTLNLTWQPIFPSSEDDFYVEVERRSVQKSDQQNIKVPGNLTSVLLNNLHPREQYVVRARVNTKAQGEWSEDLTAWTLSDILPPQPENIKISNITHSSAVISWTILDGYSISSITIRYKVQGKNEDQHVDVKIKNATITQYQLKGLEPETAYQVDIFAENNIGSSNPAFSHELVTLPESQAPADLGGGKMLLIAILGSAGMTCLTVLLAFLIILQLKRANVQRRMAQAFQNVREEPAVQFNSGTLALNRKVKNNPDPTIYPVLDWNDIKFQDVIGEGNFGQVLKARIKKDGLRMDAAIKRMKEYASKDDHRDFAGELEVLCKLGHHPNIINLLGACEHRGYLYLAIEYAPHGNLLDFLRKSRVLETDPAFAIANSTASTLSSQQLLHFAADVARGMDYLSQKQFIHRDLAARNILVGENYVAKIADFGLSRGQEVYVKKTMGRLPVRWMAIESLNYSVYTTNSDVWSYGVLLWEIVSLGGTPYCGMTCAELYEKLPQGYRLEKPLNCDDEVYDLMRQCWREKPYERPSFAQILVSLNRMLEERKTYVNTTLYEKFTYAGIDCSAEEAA

On to `CNc1nc(Nc2ccc(C(=O)N3CCC(N4CCOCC4)CC3)c3c2OCO3)nc2[nH]cc(Cl)c12` [Compound 75, (7-((5-chloro-4-(methylamino)-7H-pyrrolo[2,3-d]pyrimidin-2-yl)amino)benzo[d][1,3]dioxol-4-yl)(4-morpholinopiperidin-1-yl)methanone], for which the remaining binding at 1 µM on panel of 468 kinases [1] was 100%; on panel of 468 kinases [2], 94%; at panel of 468 kinases [3], 100%; on panel of 468 kinases [4], 47%; at panel of 468 kinases [5], 88%; at panel of 468 kinases [6], 100%.
For the compound `CNc1nc(Nc2ccc(P3(=O)CCN(C4CCOCC4)CC3)cc2OC)nc2[nH]cc(Cl)c12` [Compound 77, 4-(4-((5-chloro-4-(methylamino)-7H-pyrrolo[2,3-d]pyrimidin-2-yl)amino)-3-methoxyphenyl)-1-(tetrahydro-2H-pyran-4-yl)-1,4-azaphosphinane 4-oxide], the remaining binding at 1 µM at panel of 468 kinases [1] is 100%; on panel of 468 kinases [2], 100%; at panel of 468 kinases [3] it was 100%; at panel of 468 kinases [4] it was 39%; at panel of 468 kinases [5] it was 98%; on panel of 468 kinases [6], 100%.
For `CNc1nc(Nc2ccc(S(=O)(=O)N3CCC(N4CCOCC4)CC3)cc2OC)nc2[nH]cc(Cl)c12` [Compound 12, 5-chloro-N2-(2-methoxy-4-((4-morpholinopiperidin-1-yl)sulfonyl)phenyl)-N4-methyl-7H-pyrrolo[2,3-d]pyrimidine-2,4-diamine], the remaining binding at 1 µM on panel of 468 kinases [1] is 100%; at panel of 468 kinases [2], 94%; on panel of 468 kinases [3], 100%; on panel of 468 kinases [4] it was 96%; at panel of 468 kinases [5], 100%; at panel of 468 kinases [6], 100%.

The values above are taken from patent publication US12479847B2 (DANA-FARBER CANCER INSTITUTE, INC., priority 2019, dated 2025).
